# Target: T1, Human ACC2 (ACC2 (Nd), N terminal deleted) (Homo sapiens, UniProt O00763)
# T1 construct: made in house; host or cells: SF-9 insect cells (baculovirus)
# Experiment: Measurement of ACC2 inhibitory activity (malachite green, recombinant ACC2 (Nd))
# Type: biochemical
# Conditions: 10 μM test compound; 20 min preincubation at 30° C., 20 min reaction; 10 µM
# Procedure: The ACC2 inhibitory action of the compound of the present invention was evaluated by the following method.
# (1) Cloning of Human ACC2 Gene and Preparation of Recombinant Baculovirus
# Human ACC2 gene was cloned by PCR using a human skeletal muscle cDNA library (Clontech) as a template and Primer 1 and Primer 2 shown below. Primer 1 and Primer 2 were prepared by adding SalI, XbaI restriction enzyme recognition sequences based on the information of the base sequence of human ACC2 gene (Genbank Accession U89344).
# (§1) PCR was performed using Pyrobest DNA polymerase (TAKARA BIO INC.). The obtained PCR product was cloned to pT7 Blue vector (Novagen) and after confirmation of the base sequence, digested with restriction enzymes SalI and XbaI. The obtained DNA fragment was inserted into pFAST-BacHTa (Invitrogen) digested with restriction enzymes Sail and XbaI to give expression plasmid ACC2/pFAST-BacHTa.
# A plasmid for expression of ACC2 without a mitochondrial targeting sequence was prepared by PCR using the expression plasmid as a template, and Primer 3 (salI restriction enzyme recognition sequence was added) and Primer 4, which are prepared by reference to the information of human ACC2 gene base sequence (Genbank Accession U89344).
# as §1, with “Pyrobest-DNA” for “Pyrobest DNA”, “Aflil.” for “XbaI.”, “ACC2/pFAST-BacHTa” for “pFAST-BacHTa (Invitrogen)”, “SalI” for “Sail”, “AfilI” for “XbaI”, “ACC2mito7/pFAST-BacHTa.” for “ACC2/pFAST-BacHTa.”
# Using the expression plasmid ACC2mito7/pFAST-BacHTa and BAC-TO-BAC Baculovirus Expression System (Invitrogen), virus stock BAC-ACC2 of recombinant Baculovirus (N terminal deleted (hereinafter Nd)) was prepared.
# (2) Preparation of ACC2 (Nd) Protein
# SF-9 cells (Invitrogen) were inoculated to a medium (2 L) for insect cells (Sf-900IISFM medium (Invitrogen) containing 10% fetal bovine serum (Trace), 50 mg/L Gentamicin (Invitrogen), 0.1% Pluronic F-68 (Invitrogen)) at 0.5×10^6 cells/mL, and cultured with shaking in Wave Bioreactor (Wave) at 27° C., 20 rpm, rocking angle 6°, oxygen concentration 30%.
# On day 4 of the culture, 3 L of the medium for insect cells was added, the rocking angle was set to 8°, and the cells were further cultured. On day 5 of the culture, 100 mL of recombinant Baculovirus BAC-ACC2 (Nd) was added, 5 L of the medium for insect cells was further added, the rocking angle was set to 11°, and the cells were cultured for 3 days. The culture medium was centrifuged at 1000×g for 10 min to give virus-infected cells. The cells were washed with phosphate buffered saline (Invitrogen) and centrifuged under the same conditions. The obtained cells were cryopreserved at −80° C.
# The cryopreserved cells were thawed in ice and suspended in 900 mL of 25 mM HEPES buffer (pH 7.5) containing 10% Glycerol, 0.13 M NaCl, 1 mM EDTA, 25 mM Sodium β-Glycerophosphate and 1 mM Sodium Orthovanadate, and supplemented with Complete Protease Inhibitor (Nippon Boehringer Ingelheim Co., Ltd.). The obtained suspension was homogenized three times in a polytron homogenizer (Kinematica) at 20,000 rpm for 30 sec. The obtained cell disruption solution was clarified by centrifugation at 31000×g for 60 min, and filtered through a 0.45 μm filter. The filtrate was passed through a column packed with 60 mL of Ni-NTA Super Flow Gel (QUIAGEN) at a flow rate of about 5 mL/min. The column was washed with buffer A (50 mM HEPES (pH 7.5) containing 0.3 M NaCl), further washed with buffer A containing 20 mM Imidazole, and eluted with buffer A containing 100 mM Imidazole. The eluate was concentrated with Vivaspin 20 (Vivascience) with a molecular weight cut off of 30K. The obtained concentrate was dialyzed against 50 mM HEPES (pH 7.5) containing 10 mM MgCl2, 2 mM Dithiothreitol, 10 mM Tripotassium Citrate and 0.3 M NaCl. […]
# T1 sequence (O00763 117-2458 limits assumed, stated change not applied): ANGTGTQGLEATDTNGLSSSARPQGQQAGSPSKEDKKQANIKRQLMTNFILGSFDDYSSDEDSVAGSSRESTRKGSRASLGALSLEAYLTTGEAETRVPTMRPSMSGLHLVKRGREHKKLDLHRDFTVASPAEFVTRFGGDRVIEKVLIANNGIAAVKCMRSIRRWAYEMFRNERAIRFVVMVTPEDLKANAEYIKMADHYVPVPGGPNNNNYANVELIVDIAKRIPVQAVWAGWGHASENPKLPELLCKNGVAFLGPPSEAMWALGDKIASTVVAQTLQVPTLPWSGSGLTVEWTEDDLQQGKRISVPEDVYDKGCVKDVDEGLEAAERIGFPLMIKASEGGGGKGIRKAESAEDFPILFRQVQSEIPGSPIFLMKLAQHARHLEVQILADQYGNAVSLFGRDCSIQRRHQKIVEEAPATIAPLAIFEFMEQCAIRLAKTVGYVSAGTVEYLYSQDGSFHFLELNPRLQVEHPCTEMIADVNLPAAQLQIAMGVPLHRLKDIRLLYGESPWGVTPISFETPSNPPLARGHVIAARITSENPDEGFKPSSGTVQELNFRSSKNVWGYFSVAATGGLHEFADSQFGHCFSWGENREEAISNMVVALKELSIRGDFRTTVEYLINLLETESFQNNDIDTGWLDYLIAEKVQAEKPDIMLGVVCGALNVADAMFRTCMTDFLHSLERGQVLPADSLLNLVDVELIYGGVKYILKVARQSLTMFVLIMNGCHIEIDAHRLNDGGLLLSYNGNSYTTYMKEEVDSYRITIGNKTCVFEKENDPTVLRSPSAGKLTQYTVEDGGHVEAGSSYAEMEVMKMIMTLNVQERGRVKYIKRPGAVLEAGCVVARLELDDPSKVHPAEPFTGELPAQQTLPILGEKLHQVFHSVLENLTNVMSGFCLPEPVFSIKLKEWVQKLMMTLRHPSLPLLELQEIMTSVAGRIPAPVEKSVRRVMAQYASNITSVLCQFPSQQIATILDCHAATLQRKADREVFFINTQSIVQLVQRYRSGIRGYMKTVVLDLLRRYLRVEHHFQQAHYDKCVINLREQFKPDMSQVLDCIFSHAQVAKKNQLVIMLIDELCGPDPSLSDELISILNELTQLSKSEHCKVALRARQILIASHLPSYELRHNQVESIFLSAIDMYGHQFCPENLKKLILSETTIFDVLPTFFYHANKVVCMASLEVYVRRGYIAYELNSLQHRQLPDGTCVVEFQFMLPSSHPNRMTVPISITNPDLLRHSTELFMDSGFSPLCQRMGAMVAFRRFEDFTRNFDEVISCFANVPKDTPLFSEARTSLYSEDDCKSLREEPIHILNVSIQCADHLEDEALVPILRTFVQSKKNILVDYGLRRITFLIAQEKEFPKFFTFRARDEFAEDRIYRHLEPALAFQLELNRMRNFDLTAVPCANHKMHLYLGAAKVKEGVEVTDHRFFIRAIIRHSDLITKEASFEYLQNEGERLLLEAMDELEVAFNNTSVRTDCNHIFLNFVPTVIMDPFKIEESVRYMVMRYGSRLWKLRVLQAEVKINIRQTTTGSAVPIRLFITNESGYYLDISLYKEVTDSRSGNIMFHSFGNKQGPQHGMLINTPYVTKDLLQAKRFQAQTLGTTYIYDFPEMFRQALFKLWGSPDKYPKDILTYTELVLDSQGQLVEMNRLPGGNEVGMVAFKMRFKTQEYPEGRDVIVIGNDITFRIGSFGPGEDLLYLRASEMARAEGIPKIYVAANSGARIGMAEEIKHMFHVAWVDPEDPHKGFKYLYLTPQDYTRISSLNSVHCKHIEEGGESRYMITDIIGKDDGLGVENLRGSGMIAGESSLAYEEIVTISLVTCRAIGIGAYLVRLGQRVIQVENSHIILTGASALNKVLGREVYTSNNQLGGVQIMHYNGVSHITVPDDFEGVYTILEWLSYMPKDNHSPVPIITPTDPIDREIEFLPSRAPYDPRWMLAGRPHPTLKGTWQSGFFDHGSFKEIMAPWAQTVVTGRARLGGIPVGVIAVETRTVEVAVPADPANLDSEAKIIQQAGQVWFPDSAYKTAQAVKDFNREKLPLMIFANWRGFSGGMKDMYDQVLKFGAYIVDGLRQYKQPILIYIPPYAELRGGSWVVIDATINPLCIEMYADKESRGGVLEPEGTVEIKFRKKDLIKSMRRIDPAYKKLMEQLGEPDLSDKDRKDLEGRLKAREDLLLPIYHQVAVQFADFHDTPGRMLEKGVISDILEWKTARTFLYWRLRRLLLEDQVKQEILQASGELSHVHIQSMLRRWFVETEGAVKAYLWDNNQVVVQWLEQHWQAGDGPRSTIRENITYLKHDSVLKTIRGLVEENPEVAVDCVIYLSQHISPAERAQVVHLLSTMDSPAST
row,ACC2 inhibitory rate at 10 μM (%),SMILES
1,91,"CC(=O)N[C@@H](C)COc1cnc(-c2nc3ccc(OCC4CC4(F)F)cc3o2)c(F)c1 (stereo partly drawn) [Example 110, Diastereomer of N-{(1S)-2-[(6-{6-[(2,2-difluorocyclopropyl)methoxy]-1,3-benzoxazol-2-yl}-5-fluoropyridin-3-yl)oxy]-1-methylethyl}acetamide (retention time: long)]"
2,100,"C[C@@H](COc1cnc(-c2nc3ccc(OCC4CC4(F)F)cc3o2)c(F)c1)NC(N)=O (stereo partly drawn) [Example 111, Diastereomer of 1-{(1S)-2-[(6-{6-[(2,2-difluorocyclopropyl)methoxy]-1,3-benzoxazol-2-yl}-5-fluoropyridin-3-yl)oxy]-1-methylethyl}urea (retention time: short)]"

# Same assay, conditions: 10 μM test compound; 20 min preincubation at 30° C., 20 min reaction; read-out: ACC2 inhibitory rate at 10 μM (%)
row,inhibition at 10 µM [%],SMILES
1,99,"CC(=O)N[C@@H](C)COc1ccc(-c2nc3ccc(OCC4CC4)cc3o2)cc1 [Example 3, N-[(1S)-2-{4-[6-(cyclopropylmethoxy)-1,3-benzoxazol-2-yl]phenoxy}-1-methylethyl]acetamide]"
2,98,"CC(=O)N[C@@H](C)COc1n[nH]c(-c2nc3ccc(OCC4CC4)cc3o2)c1F [Example 9, N-[(1S)-2-({5-[6-(cyclopropylmethoxy)-1,3-benzoxazol-2-yl]-4-fluoro-1H-pyrazol-3-yl}oxy)-1-methylethyl]acetamide]"
3,103,"CC(=O)N[C@@H](C)COc1ccc(-n2cc3cc(OCC4CC4)ccc3n2)cc1 [Example 12, N-[(1S)-2-{4-[5-(cyclopropylmethoxy)-2H-indazol-2-yl]phenoxy}-1-methylethyl]acetamide]"
4,94,"CC(=O)N[C@@H](C)COc1ccc(-n2cc3ccc(OCC4CC4)cc3n2)cc1 [Example 13, N-[(1S)-2-{4-[6-(cyclopropylmethoxy)-2H-indazol-2-yl]phenoxy}-1-methylethyl]acetamide]"
5,92,"C[C@@H](COc1ccc(-c2nc3ccc(OCC4CC4)cc3o2)nc1)NC(N)=O [Example 15, 1-[(1S)-2-({6-[6-(cyclopropylmethoxy)-1,3-benzoxazol-2-yl]pyridin-3-yl}oxy)-1-methylethyl]urea]"
6,93,"CNC(=O)N[C@@H](C)COc1ccc(-c2nc3ccc(OCC4CC4)cc3o2)nc1 [Example 16, 1-[(1S)-2-({6-[6-(cyclopropylmethoxy)-1,3-benzoxazol-2-yl]pyridin-3-yl}oxy)-1-methylethyl]-3-methylurea]"
7,90,"COC(=O)N[C@@H](C)COc1ccc(-c2nc3ccc(OCC4CC4)cc3o2)nc1 [Example 17, methyl [(1S)-2-({6-[6-(cyclopropylmethoxy)-1,3-benzoxazol-2-yl]pyridin-3-yl}oxy)-1-methylethyl]carbamate]"
8,90,"CC(=O)N[C@@H](C)COc1ccc(C2Cc3ccc(OCC4CC4)cc3O2)nc1 (stereo partly drawn) [Example 24, N-[(1S)-2-({6-[6-(cyclopropylmethoxy)-2,3-dihydro-1-benzofuran-2-yl]pyridin-3-yl}oxy)-1-methylethyl]acetamide]"
9,95,"CCOc1ccc2cn(-c3ccc(OC[C@H](C)NC(C)=O)cc3)nc2c1 [Example 26, N-{(1S)-2-[4-(6-ethoxy-2H-indazol-2-yl)phenoxy]-1-methylethyl}acetamide]"
10,100,CC(=O)N[C@@H](C)COc1ccc(-c2nc3ccc(OCC(C)(F)F)cc3o2)nc1 [Example 30]
11,85,"CC(=O)N[C@@H](C)COc1cc(-c2nc3cc(OC(C)C)ccc3o2)on1 [Example 33, N-[(1S)-1-methyl-2-({5-[5-(1-methylethoxy)-1,3-benzoxazol-2-yl]isoxazol-3-yl}oxy)ethyl]acetamide]"
12,93,"C[C@@H](COc1ccc(-n2cc3ccc(OCC4CC4)cc3n2)cc1)NC(=O)N(C)C [Example 63, 3-[(1S)-2-{4-[6-(cyclopropylmethoxy)-2H-indazol-2-yl]phenoxy}-1-methylethyl]-1,1-dimethylurea]"
13,93,"CC(=O)N[C@@H](C)COc1cc(F)c(-n2cc3ccc(OCC4CC4)cc3n2)cc1F [Example 70, N-[(1S)-2-{4-[6-(cyclopropylmethoxy)-2H-indazol-2-yl]-2,5-difluorophenoxy}-1-methylethyl]acetamide]"
14,99,"CC(=O)N[C@@H](C)COc1ccc(-n2nc3cc(OCC4CC4)ccc3c2F)cc1 [Example 73, N-[(1S)-2-{4-[6-(cyclopropylmethoxy)-3-fluoro-2H-indazol-2-yl]phenoxy}-1-methylethyl]acetamide]"
15,93,"CCOc1ccc2cc(-c3ccc(OC[C@H](C)NC(C)=O)cc3)nn2c1 [Example 85, N-{(1S)-2-[4-(6-ethoxypyrazolo[1,5-a]pyridin-2-yl)phenoxy]-1-methylethyl}acetamide]"
16,94,"CC(=O)N[C@@H](C)COc1ccc(-c2nc3ccc(OCC4CC4)cn3n2)cc1 [Example 89, N-[(1S)-2-{4-[6-(cyclopropylmethoxy)[1,2,4]triazolo[1,5-a]pyridin-2-yl]phenoxy}-1-methylethyl]acetamide]"
17,93,"CC(=O)N[C@@H](C)COc1ccc(-c2nc3ccc(OCC4CC4)cn3c2F)cc1 [Example 92, N-[(1S)-2-{4-[6-(cyclopropylmethoxy)-3-fluoroimidazo[1,2-a]pyridin-2-yl]phenoxy}-1-methylethyl]acetamide]"
18,94,"CC(=O)N[C@@H](C)COc1ccc(-c2nc3cc(OCC4CC4)ccn3n2)cc1 [Example 95, N-[(1S)-2-{4-[7-(cyclopropylmethoxy) [1,2,4]triazolo[1,5-a]pyridin-2-yl]phenoxy}-1-methylethyl]acetamide]"
19,95,C[C@@H](COc1cnc(-c2nc3ccc(OCC4CC4(F)F)cc3o2)c(F)c1)NC(N)=O (some centres unmarked) [Example 97]
20,90,"CCOc1ccc2c(F)c(-c3ccc(OC[C@H](C)NC(C)=O)cc3F)nn2c1 [Example 100, N-{(1S)-2-[4-(6-ethoxy-3-fluoropyrazolo[1,5-a]pyridin-2-yl)-3-fluorophenoxy]-1-methylethyl}acetamide]"
21,99,"CC(=O)N[C@@H](C)COc1ccc(-c2nn3cc(OCC4CC4)ccc3c2F)c(F)c1 [Example 102, N-[(1S)-2-{4-[6-(cyclopropylmethoxy)-3-fluoropyrazolo[1,5-a]pyridin-2-yl]-3-fluorophenoxy}-1-methylethyl]acetamide]"
22,102,"CC(=O)N[C@@H](C)COc1ccc(-c2cc3ccc(OCC4CC4)cn3n2)c(F)c1 [Example 104, N-[(1S)-2-{4-[6-(cyclopropylmethoxy)pyrazolo[1,5-a]pyridin-2-yl]-3-fluorophenoxy}-1-methylethyl]acetamide]"
23,95,"CC(=O)N[C@@H](C)COc1cnc(-c2nc3ccc(OCC4CC4(F)F)cc3o2)c(F)c1 (stereo partly drawn) [Example 109, Diastereomer of N-{(1S)-2-[(6-{6-[(2,2-difluorocyclopropyl)methoxy]-1,3-benzoxazol-2-yl}-5-fluoropyridin-3-yl)oxy]-1-methylethyl}acetamide (retention time: short)]"

row,SMILES,inhibition at 10 µM [%]
1,"CCOc1ccc2cn(-c3ccc(OC[C@H](C)NC(C)=O)cc3F)nc2c1 [Example 25, N-{(1S)-2-[4-(6-ethoxy-2H-indazol-2-yl)-3-fluorophenoxy]-1-methylethyl}acetamide monohydrate]",90
